From BindingDB's records for doi:10.7270/Q2NK3CFW (Nmmlsc, 2009)

Target: Cell division control protein 42 homolog (Homo sapiens, UniProt P60953)
Assay: wild-type Cdc42 nucleotide-binding inhibitors, SAR follow-up, biochemical, bead-based multiplex flow cytometry, oxadiazole series (AID 2037)
[1] = inactive by the depositor's call

Chain of Cell division control protein 42 homolog (P60953 whole entry): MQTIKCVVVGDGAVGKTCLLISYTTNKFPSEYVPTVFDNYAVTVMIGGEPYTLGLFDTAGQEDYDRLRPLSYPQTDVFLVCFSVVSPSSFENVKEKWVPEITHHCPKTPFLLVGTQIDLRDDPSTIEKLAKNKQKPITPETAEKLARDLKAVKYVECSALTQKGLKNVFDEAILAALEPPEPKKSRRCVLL

Compound	EC50 [nM]	EC50 [1] [nM]
Cc1ccc(C)c(N2CCN(C(=O)CCc3nc(-c4ccccc4C)no3)CC2)c1	> 30000	
Cc1ccc(C)c(N2CCN(C(=O)CCc3nc(-c4ccccc4C(F)(F)F)no3)CC2)c1	4950	
COc1ccc(-c2noc(CCC(=O)N3CCN(c4ccccc4C)CC3)n2)cc1	1710	
COc1ccc(-c2noc(CCC(=O)N3CCN(c4cc(C)ccc4C)CC3)n2)cc1 [1-[4-(2,5-dimethylphenyl)-1-piperazinyl]-3-[3-(4-methoxyphenyl)-1,2,4-oxadiazol-5-yl]-1-propanone]		2740
Cc1ccc(C)c(N2CCN(C(=O)CCc3nc(-c4ccc(C(F)(F)F)cc4)no3)CC2)c1 [1-[4-(2,5-dimethylphenyl)-1-piperazinyl]-3-[3-[4-(trifluoromethyl)phenyl]-1,2,4-oxadiazol-5-yl]-1-propanone]		3210
COc1ccc(-c2coc(CCC(=O)N3CCN(c4cc(C)ccc4C)CC3)n2)cc1 [1-[4-(2,5-dimethylphenyl)piperazin-1-yl]-3-[4-(4-methoxyphenyl)-1,3-oxazol-2-yl]propan-1-one]	2280	
COc1ccc(-c2noc(CCC(=O)N3CCN(c4ccccc4Cl)CC3)n2)cc1 [1-[4-(2-chlorophenyl)piperazin-1-yl]-3-[3-(4-methoxyphenyl)-1,2,4-oxadiazol-5-yl]propan-1-one]	805	
COc1ccc(-c2noc(CCC(=O)N3CCN(c4cccc(Br)c4)CC3)n2)cc1 [1-[4-(3-bromophenyl)-1-piperazinyl]-3-[3-(4-methoxyphenyl)-1,2,4-oxadiazol-5-yl]-1-propanone]	> 30000	
COc1ccc(-c2noc(CCC(=O)N3CCN(c4ccc(Br)cc4)CC3)n2)cc1 [1-[4-(4-bromophenyl)piperazin-1-yl]-3-[3-(4-methoxyphenyl)-1,2,4-oxadiazol-5-yl]propan-1-one]	> 30000	
COc1ccc(-c2noc(CCC(=O)N3CCN(c4cccc(C(F)(F)F)c4)CC3)n2)cc1 [1-{3-[3-(4-methoxyphenyl)-1,2,4-oxadiazol-5-yl]propanoyl}-4-[3-(trifluoromethyl)phenyl]piperazine]		1920
Cc1ccc(C)c(N2CCN(C(=O)CCc3nc(-c4ccccc4Cl)no3)CC2)c1 [3-[3-(2-chlorophenyl)-1,2,4-oxadiazol-5-yl]-1-[4-(2,5-dimethylphenyl)-1-piperazinyl]-1-propanone]	> 30000	
COc1ccc(-c2noc(CCC(=O)N3CCN(c4ccc(C)cc4)CC3)n2)cc1 [3-[3-(4-methoxyphenyl)-1,2,4-oxadiazol-5-yl]-1-[4-(4-methylphenyl)piperazin-1-yl]propan-1-one]		566
COc1ccc(-c2noc(CCC(=O)N3CCN(c4ccc(C(F)(F)F)cc4)CC3)n2)cc1 [3-[3-(4-methoxyphenyl)-1,2,4-oxadiazol-5-yl]-1-[4-[4-(trifluoromethyl)phenyl]piperazin-1-yl]propan-1-one]	> 30000	
COc1ccc(-c2noc(CCC(=O)N3CCN(c4cccc(OC)c4)CC3)n2)cc1 [KUC103349N]		12100
COc1ccc(-c2noc(CCCC(=O)N3CCN(c4cc(C)ccc4C)CC3)n2)cc1 [KUC103353N]	6210	
Cc1ccc(C)c(N2CCN(C(=O)CCc3nc(-c4ccc(F)cc4)no3)CC2)c1 [KUC103364N]		360
Cc1ccc(C)c(N2CCN(C(=O)CCc3nc(-c4cccc(C(F)(F)F)c4)no3)CC2)c1 [KUC103380N]	> 30000	
COc1ccc(-c2noc(CCC(=O)N3CCC(c4cc(C)ccc4C)CC3)n2)cc1 [KUC103432N]	1420	
COc1ccc(-c2ccc(CCC(=O)N3CCN(c4cc(C)ccc4C)CC3)o2)cc1 [KUC103447N]	> 30000	
Cc1ccc(C)c(N2CCN(C(=O)CCc3nc(-c4ccc(Br)cc4)no3)CC2)c1 [UNM-0000306072]		1620
Cc1ccc(C)c(N2CCN(C(=O)CCc3nc(-c4cccc(Cl)c4)no3)CC2)c1 [UNM-0000306086]	2180	
COc1ccc(-c2cc(CCC(=O)N3CCN(c4cc(C)ccc4C)CC3)[nH]n2)cc1 [UNM-0000306150]	> 30000	

The remaining lines, values ahead:

EC50 [nM]	EC50 [1] [nM]	Compound
2770		COc1cccc(-c2noc(CCC(=O)N3CCN(c4cc(C)ccc4C)CC3)n2)c1
> 30000		COc1ccc(-c2noc(CCC(=O)N3CCN(c4cccc(Cl)c4)CC3)n2)cc1
> 30000		COc1ccc(-c2ccc(CCC(=O)N3CCN(c4cc(C)ccc4C)CC3)s2)cc1
	1150	COc1ccc(-c2noc(CCC(=O)N3CCN(c4cccc(C)c4C)CC3)n2)cc1 [1-[4-(2,3-dimethylphenyl)-1-piperazinyl]-3-[3-(4-methoxyphenyl)-1,2,4-oxadiazol-5-yl]-1-propanone]
4370		Cc1ccc(-c2noc(CCC(=O)N3CCN(c4cc(C)ccc4C)CC3)n2)cc1 [1-[4-(2,5-dimethylphenyl)-1-piperazinyl]-3-[3-(4-methylphenyl)-1,2,4-oxadiazol-5-yl]-1-propanone]
> 30000		COc1ccc(-c2noc(CCCCC(=O)N3CCN(c4cc(C)ccc4C)CC3)n2)cc1 [1-[4-(2,5-dimethylphenyl)-1-piperazinyl]-5-[3-(4-methoxyphenyl)-1,2,4-oxadiazol-5-yl]-1-pentanone]
> 30000		COc1ccc(-c2noc(CC(=O)N3CCN(c4cc(C)ccc4C)CC3)n2)cc1 [1-[4-(2,5-dimethylphenyl)piperazin-1-yl]-2-[3-(4-methoxyphenyl)-1,2,4-oxadiazol-5-yl]ethanone]
1020		Cc1cccc(-c2noc(CCC(=O)N3CCN(c4cc(C)ccc4C)CC3)n2)c1 [1-[4-(2,5-dimethylphenyl)piperazin-1-yl]-3-[3-(3-methylphenyl)-1,2,4-oxadiazol-5-yl]propan-1-one]
> 30000		COc1ccc(-c2cc(CCC(=O)N3CCN(c4cc(C)ccc4C)CC3)on2)cc1 [1-[4-(2,5-dimethylphenyl)piperazin-1-yl]-3-[3-(4-methoxyphenyl)-1,2-oxazol-5-yl]propan-1-one]
> 30000		COc1ccc(-c2ccc(CCC(=O)N3CCN(c4cc(C)ccc4C)CC3)[nH]2)cc1 [1-[4-(2,5-dimethylphenyl)piperazin-1-yl]-3-[5-(4-methoxyphenyl)-1H-pyrrol-2-yl]propan-1-one]
	655	COc1ccc(-c2noc(CCC(=O)N3CCN(c4ccccc4F)CC3)n2)cc1 [1-[4-(2-fluorophenyl)piperazin-1-yl]-3-[3-(4-methoxyphenyl)-1,2,4-oxadiazol-5-yl]propan-1-one]
> 30000		COc1ccc(-c2noc(CCC(=O)N3CCN(c4cccc(F)c4)CC3)n2)cc1 [1-[4-(3-fluorophenyl)piperazin-1-yl]-3-[3-(4-methoxyphenyl)-1,2,4-oxadiazol-5-yl]propan-1-one]
	2340	Cc1ccc(C)c(N2CCN(C(=O)CCc3nc(-c4ccccc4Br)no3)CC2)c1 [3-[3-(2-bromophenyl)-1,2,4-oxadiazol-5-yl]-1-[4-(2,5-dimethylphenyl)-1-piperazinyl]-1-propanone]
> 30000		COc1ccc(-c2noc(CCC(=O)N3CCN(c4ccccc4)CC3)n2)cc1 [3-[3-(4-methoxyphenyl)-1,2,4-oxadiazol-5-yl]-1-(4-phenylpiperazin-1-yl)propan-1-one]
> 30000		COc1ccc(-c2noc(CCC(=O)N3CCN(c4ccccc4OC)CC3)n2)cc1 [3-[3-(4-methoxyphenyl)-1,2,4-oxadiazol-5-yl]-1-[4-(2-methoxyphenyl)-1-piperazinyl]-1-propanone]
	450	COc1ccc(-c2noc(CCC(=O)N3CCN(c4ccc(OC)cc4)CC3)n2)cc1 [3-[3-(4-methoxyphenyl)-1,2,4-oxadiazol-5-yl]-1-[4-(4-methoxyphenyl)piperazin-1-yl]propan-1-one]
> 30000		Cc1ccc(C)c(N2CCN(C(=O)CCc3nc(-c4cccc(F)c4)no3)CC2)c1 [KUC103366N]
	2140	Cc1ccc(C)c(N2CCN(C(=O)CCc3nc(-c4cccc(Br)c4)no3)CC2)c1 [KUC103367N]
2310		COc1ccc(-c2noc(CCC(=O)N3CCN(c4ccccc4Br)CC3)n2)cc1 [KUC103370N]
> 30000		COc1ccc(-c2noc(CCC(=O)N3CCN(c4ccc(F)cc4)CC3)n2)cc1 [KUC103398N]
> 30000		Cc1ccc(C)c(N2CCN(C(=O)CCc3nc(-c4ccccc4F)no3)CC2)c1 [KUC103401N]
	1190	Cc1ccc(C)c(N2CCN(C(=O)CCc3nc(-c4ccc(N(C)C)cc4)no3)CC2)c1 [KUC103409N]
4000		Cc1ccc(C)c(N2CCN(C(=O)CCc3nc(-c4ccccc4)no3)CC2)c1 [UNM-0000306070]
	1540	COc1ccccc1-c1noc(CCC(=O)N2CCN(c3cc(C)ccc3C)CC2)n1 [UNM-0000306071]
	1980	COc1ccc(-c2noc(CCC(=O)N3CCN(c4ccccc4C(F)(F)F)CC3)n2)cc1 [UNM-0000306082]
1720		Cc1ccc(C)c(N2CCN(C(=O)CCc3nc(-c4ccc(Cl)cc4)no3)CC2)c1 [UNM-0000306083]
> 30000		COc1ccc(-c2noc(CCC(=O)N3CCN(c4ccc(Cl)cc4)CC3)n2)cc1 [UNM-0000306121]
> 30000		COc1ccc(-c2noc(CCC(=O)N3CCN(c4cccc(C)c4)CC3)n2)cc1 [UNM-0000306125]
	3670	COc1ccc(-c2cccc(CCC(=O)N3CCN(c4cc(C)ccc4C)CC3)c2)cc1 [UNM-0000306127]
